Assays:
[1] = test system: C. albicans clinical isolate 23; experiment: Resazurin viability assay of clinical isolate 23; assay type: cell-based, Candida albicans; conditions: antifungal alone at 1x ED
Procedure: The viability of C. albicans cells was assessed following the guidelines of the Clinical and Laboratory Standards Institute (M27-A3)[86]. Accordingly, 2.5 × 10^4 yeast cells/mL were cultured in 200 µL of RPMI-1640 medium in the presence of peptide (Pom-1 to Pom-1 F) and amphotericin B or fluconazole in different concentrations (0.1x ED/MBIC and 0.5x ED/MBIC) in flat-bottomed polystyrene microtiter plates with 96 wells (Sarstedt AG and Co. KG, Nümbrecht, Germany) at 37 °C with shaking at 900 rpm on an Eppendorf shaker. The quantification of viable yeast cells was carried out using a Resazurin-Reduction-Assay[86]. Accordingly, the cells were exposed to 20 µL of a 0.15 mg/mL resazurin solution for 2 h and subsequently the amount of converted resorufin was determined with fluorescence measurements at an excitation wavelength of 535 and an emission of 595 nm with a Tecan infinite F200 microplate reader (Tecan Group Ltd., Männedorf, Switzerland).
Figure S4. Inherent resilience to aggregation by isolate 23 and marginal reduction of viability by further raised concentrations of antifungal and peptide combinations. (A) Microscopic analysis using a Leica DMi8 coded (Leica Microsystems CMS GmbH, Wetzlar, Germany) microscope of C. albicans laboratory strain and clinical isolate 23 with and without treatment with Pom-1. The pictures were taken after an incubation time of 2 h. […]

[2] = test system: C. albicans laboratory strain and clinical isolates; experiment: Resazurin reduction viability assay of planktonic cells; assay type: cell-based, Candida albicans; conditions: for strains whose viability could not be reduced to zero: 1x ED: 2 µg/mL amphotericin B, 8 µg/mL fluconazole
Procedure: KG, Nümbrecht, Germany) at 37 °C with shaking at 900 rpm on an Eppendorf shaker. The quantification of viable yeast cells was carried out using a Resazurin-Reduction-Assay[86]. Accordingly, the cells were exposed to 20 µL of a 0.15 mg/mL resazurin solution for 2 h and subsequently the amount of converted resorufin was determined with fluorescence measurements at an excitation wavelength of 535 and an emission of 595 nm with a Tecan infinite F200 microplate reader (Tecan Group Ltd., Männedorf, Switzerland).

[3] = test system: C. albicans laboratory strain and clinical isolates; experiment: Biofilm formation, crystal violet assay; assay type: cell-based, Candida albicans
Procedure: In order to evaluate the antifungal effects of the Pom-1 derivatives combined with amphotericin B or fluconazole on biofilm formation, a crystal violet assay was performed[84],[85]. For this, 2.5 × 10^4 yeast cells/mL were incubated in 200 µL of RPMI-1640 medium supplemented with amphotericin B, fluconazole and Pom-1 to Pom-1 F in flat-bottomed polystyrene microtiter plates with 96 wells for 24 h at 37 °C without agitation. Subsequently, the planktonic phase was removed, the remaining cells attached to the wells were washed twice with 200 µL of demineralized water and exposed to 200 µL of 0.1% (w/v) crystal violet solution for 15 min. Afterwards, the solution was removed and the cells were washed again twice with 200 µL of demineralized water and the plates were left to dry for 24 h at 25 °C. To dissolve the stain, 200 µL of 30% acetic acid was added and transferred to a new plate after 15 min. […] By comparing the resulting data against the untreated controls, the efficacy of the agents could be assessed.

A549 cells = experiment: Resazurin viability assay for cell culture (A549); assay type: cell-based, human; conditions: detergent cell lysis control
Procedure: (§1) Adenocarcinomic human alveolar basal epithelial cells (A549) (purchased from the ATCC, Manassas, VA, USA, CRM-CCL-185)[67] and human dermal fibroblasts (HDFs) (purchased from tebu-bio GmbH, Offenbach, Germany) were used[68] for the experiments. Cultivation was conducted in DMEM with FBS (10% (w/v), 15% (w/v)), MEM NEAAs (1% (w/v)), and penicillin–streptomycin (100 U/mL, 1% (w/v)) at 37 °C in an incubator containing 5% CO2. To detect the viability of human cells, a resazurin reduction assay was performed. For this, 2 × 10^4 cells per well of a 96-well plate were incubated in 200 µL DMEM with additives at 37 °C and 5% CO2. After removing the medium, 100 µL of the medium and 100 µL of a peptide/antifungal solution (2.5 µg/mL, 25 µg/mL) were added. After incubation for 24 h at 37 °C and 5% CO2, 20 µL of a resazurin solution (0.15 mg/mL) were added into each well, and the cells were incubated again for 24 h at 37 °C and 5% CO2. Fluorescence measurement (excitation wavelength—535 nm, emission wavelength—595 nm) of the converted resorufin was then performed using a Tecan Infinite F200 microplate reader (Tecan Group Ltd., Männedorf, Switzerland).

[4] = test system: C. albicans reference strain; experiment: Permeabilization assay with fluorescent dyes of increasing size; assay type: cell-based, Candida albicans; conditions: FITC, propidium iodide, ATTO 488 alkyne, rhodamine phalloidin; Pom-1 or Cm-p5 at 2.5 µg/mL and 10 µg/mL, 2 h, 37 °C; Triton X-100 0.2% (w/v) solution, last 10 min; fluorescence; triplicate
Procedure: For this, 2.5 × 10^4 cells/mL of the C. albicans reference strain were incubated in 200 µL of RPMI-1640 medium supplemented with either Pom-1 or Cm-p5 at final concentrations of 2.5 µg/mL and 10 µg/mL and incubated for 2 h at 37 °C. For the positive control, 100 µL of a 0.2% (w/v) solution of Triton X-100 was added 10 min prior to the end of the 2 h incubation time and for the negative control, no agent was added (untreated). After incubation, the tubes were centrifuged at 11,000 ×g and the supernatant was discarded. Afterwards, the cells were washed with once with PBS and after addition of 5 µL dye and 195 µL PBS (final concentration of dye: 5 µL/mL) the cell suspension was centrifuged at 11,000 ×g for 2 min. […] Subsequently the yeast cells were washed 3x with PBS, resuspended in 200 µL of PBS and pipetted into flat-bottomed polystyrene microtiter plates with 96 wells (Sarstedt AG and Co. KG, Nümbrecht, Germany) and fluorescence measurements were conducted at an excitation wavelength of 498 nm (FITC), 535 nm (propidium iodide), 500 nm (Atto488), and 540 nm (rhodamine phalloidin) and an emission of 517 nm (FITC), 617 nm (propidium iodide), 520 nm (Atto488), 565 nm (rhodamine phalloidin) with a Tecan infinite F200 microplate reader (Tecan Group Ltd., Männedorf, Switzerland). […]

[5] = test system: human dermal fibroblasts (HDF); experiment: Resazurin viability assay for cell culture (HDF); assay type: cell-based; conditions: detergent cell lysis control
Procedure: as §1

Compound | effect on isolate 23 [1] | strains whose viability could not be reduced to zero [2] | isolates with viability reduction (death count) ([2]; fluconazole only, 0.1x ED) | ratio of completely killed C. albicans isolates ([2]; fluconazole only, 1x ED (8 µg/mL), 28 strains) [%] | strains killed completely ([2]; amphotericin B only, 0.5x ED, planktonic cells, 28 strains) [%] | isolates against which fully active (zero viability) ([2]; amphotericin B only, 1x ED (2 µg/mL), planktonic cells, 28 strains) [%] | isolates against which fully active (death count) ([2]; amphotericin B only, 1x ED (2 µg/mL), planktonic cells, resazurin, triplicate) | strains with complete biofilm inhibition (death count) ([3]; amphotericin B only, 0.1x ED) | strains with complete biofilm inhibition (death count) ([3]; antifungal only, 0.5x ED) | strains with complete biofilm inhibition ([3]; antifungal only, 0.5x ED, 21 strains) [%] | strains with complete inhibition of biofilms ([3]; antifungal only, 1x ED (2 µg/mL), 21 strains) [%] | strains with complete inhibition of biofilms (death count) ([3]; antifungal only, 1x ED (2 µg/mL), crystal violet, 24 h, 37 °C, triplicate) | cell viability of A549 cells (A549 cells) | permeabilization of C. albicans cells for fluorescent dyes [4] | cell viability of HDF cells [5]
OC(Cn1cncn1)(Cn1cncn1)c1ccc(F)cc1F [fluconazole] | unaffected | 12 of 28 strains | 3 isolates of 28 | 57 |  |  |  |  |  |  |  |  |  |  | 
C[C@@H]1[C@H](O)[C@@H](C)/C=C/C=C/C=C/C=C/C=C/C=C/C=C/[C@H](O[C@@H]2O[C@H](C)[C@@H](O)[C@H](N)[C@@H]2O)C[C@@H]2O[C@](O)(C[C@@H](O)C[C@@H](O)[C@H](O)CC[C@@H](O)C[C@@H](O)CC(=O)O[C@H]1C)C[C@H](O)[C@H]2C(=O)O [amphotericin B] | unaffected | 21 of 28 strains |  |  | 7 | 25 | 7 of 28 | totally failed | 2 of 21 | 9.5 | 52 | 11 of 21 |  |  | 
Triton X-100 |  |  |  |  |  |  |  |  |  |  |  |  | zero | permeabilized Candida cells for all dyes | zero

— PMC12241370, “Anti-biofilm peptides can rescue fluconazole and amphotericin B efficacies against Candida albicans” (Scientific Reports, 2025)
